According to ChEMBL document CHEMBL1153594, “Design, synthesis and biological evaluation of novel 2-[(2,4-diaryl-3-azabicyclo[3.3.1]nonan-9-ylidene)hydrazono]-1,3-thiazolidin-4-ones as a new class of antimicrobial agents” (2009):
Values after ≈ are worked out from the molar mass of the structure shown. Active and inactive are the calls of the source. No cut-off for these calls is given here.

Columns and labels:
Cryptococcus neoformans = test: Antifungal activity against Cryptococcus neoformans ATCC 3312 after 72 to 96 hrs by twofold serial dilution method; type: functional
Aspergillus flavus [1] = test: Antifungal activity against Aspergillus flavus ATCC 485 after 72 to 96 hrs by twofold serial dilution method; type: functional
Bacillus subtilis = test: Antibacterial activity against Bacillus subtilis ATCC 451 after 24 hrs by twofold serial dilution method; type: functional; settings: ATCC 451, 24 h
Klebsiella pneumoniae [2] = test: Antibacterial activity against Klebsiella pneumoniae ATCC 15490 after 24 hrs by twofold serial dilution method; type: functional; settings: ATCC 15490, 24 h
Rhizopus [3] = test: Antifungal activity against Rhizopus sp. ATCC 2915 after 72 to 96 hrs by twofold serial dilution method; type: functional
[4] = tested on: Salmonella enterica subsp. enterica; test: Antibacterial activity against Salmonella typhi ATCC 24915 after 24 hrs by twofold serial dilution method; type: functional, Salmonella enterica subsp. enterica serovar Typhi; settings: ATCC 24915, 24 h
Staphylococcus aureus = test: Antibacterial activity against Staphylococcus aureus ATCC 25825 after 24 hrs by twofold serial dilution method; type: functional; settings: ATCC 25825, 24 h
Aspergillus niger [5] = test: Antifungal activity against Aspergillus niger ATCC 598 after 72 to 96 hrs by twofold serial dilution method; type: functional
Escherichia coli [6] = test: Antibacterial activity against Escherichia coli ATCC 25835 after 24 hrs by twofold serial dilution method; type: functional; settings: ATCC 25835, 24 h
Candida albicans [7] = test: Antifungal activity against Candida albicans ATCC 3122 by twofold serial dilution method; type: functional
Escherichia coli [8] = test: Antibacterial activity against Escherichia coli ATCC 25835 at 200 ug/mL after 24 hrs by twofold serial dilution method; type: functional, organism-based
Aspergillus niger [9] = test: Antifungal activity against Aspergillus niger ATCC 598 at 200 ug/mL after 72 to 96 hrs by twofold serial dilution method; type: functional, organism-based
Aspergillus flavus [10] = test: Antifungal activity against Aspergillus flavus ATCC 485 at 200 ug/mL after 72 to 96 hrs by twofold serial dilution method; type: functional, organism-based
[11] = tested on: Salmonella enterica subsp. enterica; test: Antibacterial activity against Salmonella typhi ATCC 24915 at 200 ug/mL after 24 hrs by twofold serial dilution method; type: functional, organism-based; settings: Salmonella enterica subsp. enterica serovar Typhi
Rhizopus [12] = test: Antifungal activity against Rhizopus sp. ATCC 2915 at 200 ug/mL after 72 to 96 hrs by twofold serial dilution method; type: functional, organism-based
Klebsiella pneumoniae [13] = test: Antibacterial activity against Klebsiella pneumoniae ATCC 15490 at 200 ug/mL after 24 hrs by twofold serial dilution method; type: functional, organism-based
Candida albicans [14] = test: Antifungal activity against Candida albicans ATCC 3122 at 200 ug/mL by twofold serial dilution method; type: functional, organism-based

Row | SMILES | MIC (Cryptococcus neoformans) [mg/L] | MIC (Aspergillus flavus [1]) [mg/L] | MIC (Bacillus subtilis) [mg/L] | MIC (Klebsiella pneumoniae [2]) [mg/L] | MIC (Rhizopus [3]) [mg/L] | MIC [4] [mg/L] | MIC (Staphylococcus aureus) [mg/L] | MIC (Aspergillus niger [5]) [mg/L] | MIC (Escherichia coli [6]) [mg/L] | MIC (Candida albicans [7]) [mg/L] | MIC (Escherichia coli [8]) | MIC (Aspergillus niger [9]) | MIC (Aspergillus flavus [10]) | MIC [11] | MIC (Rhizopus [12]) | MIC (Klebsiella pneumoniae [13]) | MIC (Candida albicans [14])
1 | NC(=S)NN=C1C2CCCC1C(c1cccc(F)c1)NC2c1cccc(F)c1 (stereo not given) | 25 (≈ 62.4 µM) | 50 (≈ 125 µM) | 25 (≈ 62.4 µM) | 25 (≈ 62.4 µM) | 100 (≈ 250 µM) | 50 (≈ 125 µM) | 6.25 (≈ 15.6 µM) | 25 (≈ 62.4 µM) | 100 (≈ 250 µM) | 25 (≈ 62.4 µM) |  |  |  |  |  |  | 
2 | NC(=S)NN=C1C2CCCC1C(c1ccc(F)cc1)NC2c1ccc(F)cc1 (stereo not given) | 25 (≈ 62.4 µM) | 6.25 (≈ 15.6 µM) | 25 (≈ 62.4 µM) | 100 (≈ 250 µM) | 100 (≈ 250 µM) | 12.5 (≈ 31.2 µM) | 50 (≈ 125 µM) | 100 (≈ 250 µM) |  | 50 (≈ 125 µM) | inactive |  |  |  |  |  | 
3 | Cc1ccc(C2NC(c3ccc(C)cc3)C3CCCC2C3=N/N=C2/NC(=O)CS2)cc1 (stereo not given) | 100 (≈ 231 µM) | 25 (≈ 57.8 µM) | 25 (≈ 57.8 µM) | 25 (≈ 57.8 µM) | 50 (≈ 116 µM) | 100 (≈ 231 µM) | 25 (≈ 57.8 µM) |  | 50 (≈ 116 µM) | 100 (≈ 231 µM) |  | inactive |  |  |  |  | 
4 | O=C1CS/C(=N\N=C2C3CCCC2C(c2ccccc2)NC3c2ccccc2)N1 (stereo not given) | 50 (≈ 124 µM) | 200 (≈ 494 µM) | 25 (≈ 61.8 µM) | 50 (≈ 124 µM) | 200 (≈ 494 µM) | 100 (≈ 247 µM) | 50 (≈ 124 µM) |  | 12.5 (≈ 30.9 µM) | 50 (≈ 124 µM) |  | inactive |  |  |  |  | 
5 | NC(=S)NN=C1C2CCCC1C(c1ccc(Cl)cc1)NC2c1ccc(Cl)cc1 (stereo not given) | 25 (≈ 57.7 µM) | 6.25 (≈ 14.4 µM) | 100 (≈ 231 µM) | 200 (≈ 461 µM) | 50 (≈ 115 µM) | 100 (≈ 231 µM) | 25 (≈ 57.7 µM) | 100 (≈ 231 µM) | 6.25 (≈ 14.4 µM) | 25 (≈ 57.7 µM) |  |  |  |  |  |  | 
6 | COc1ccc(C2NC(c3ccc(OC)cc3)C3CCCC2C3=N/N=C2/NC(=O)CS2)cc1 (stereo not given) | 50 (≈ 108 µM) |  | 50 (≈ 108 µM) | 25 (≈ 53.8 µM) | 200 (≈ 430 µM) | 100 (≈ 215 µM) | 6.25 (≈ 13.5 µM) | 100 (≈ 215 µM) | 100 (≈ 215 µM) | 100 (≈ 215 µM) |  |  | inactive |  |  |  | 
7 | NC(=S)NN=C1C2CCCC1C(c1ccccc1Cl)NC2c1ccccc1Cl (stereo not given) | 100 (≈ 231 µM) | 100 (≈ 231 µM) | 100 (≈ 231 µM) | 50 (≈ 115 µM) | 25 (≈ 57.7 µM) | 50 (≈ 115 µM) | 200 (≈ 461 µM) | 100 (≈ 231 µM) | 100 (≈ 231 µM) | 200 (≈ 461 µM) |  |  |  |  |  |  | 
8 | COc1cccc(C2NC(c3cccc(OC)c3)C3CCCC2C3=NNC(N)=S)c1 (stereo not given) | 100 (≈ 236 µM) |  | 50 (≈ 118 µM) | 100 (≈ 236 µM) | 100 (≈ 236 µM) | 200 (≈ 471 µM) | 50 (≈ 118 µM) | 50 (≈ 118 µM) | 25 (≈ 58.9 µM) | 50 (≈ 118 µM) |  |  | inactive |  |  |  | 
9 | CN[C@@H]1[C@H](O[C@H]2[C@H](O[C@H]3[C@H](O)[C@@H](O)[C@H](N=C(N)N)[C@@H](O)[C@@H]3N=C(N)N)O[C@@H](C)[C@]2(O)C=O)O[C@@H](CO)[C@H](O)[C@H]1O [STREPTOMYCIN] |  |  | 12.5 (≈ 21.5 µM) | 25 (≈ 43 µM) |  | 50 (≈ 86 µM) | 50 (≈ 86 µM) |  | 12.5 (≈ 21.5 µM) |  |  |  |  |  |  |  | 
10 | COc1cccc(C2NC(c3cccc(OC)c3)C3CCCC2C3=N/N=C2/NC(=O)CS2)c1 (stereo not given) | 100 (≈ 215 µM) | 200 (≈ 430 µM) | 100 (≈ 215 µM) | 50 (≈ 108 µM) | 100 (≈ 215 µM) | 6.25 (≈ 13.5 µM) | 100 (≈ 215 µM) | 50 (≈ 108 µM) | 50 (≈ 108 µM) | 50 (≈ 108 µM) |  |  |  |  |  |  | 
11 | Cc1ccc(C2NC(c3ccc(C)cc3)C3CCCC2C3=NNC(N)=S)cc1 (stereo not given) | 200 (≈ 509 µM) |  | 100 (≈ 255 µM) | 100 (≈ 255 µM) | 100 (≈ 255 µM) |  | 12.5 (≈ 31.8 µM) | 200 (≈ 509 µM) | 50 (≈ 127 µM) | 200 (≈ 509 µM) |  |  | inactive | inactive |  |  | 
12 | NC(=S)NN=C1C2CCCC1C(c1ccccc1)NC2c1ccccc1 (stereo not given) | 100 (≈ 274 µM) | 200 (≈ 549 µM) | 100 (≈ 274 µM) | 200 (≈ 549 µM) |  | 200 (≈ 549 µM) | 50 (≈ 137 µM) | 200 (≈ 549 µM) | 100 (≈ 274 µM) | 200 (≈ 549 µM) |  |  |  |  | inactive |  | 
13 | C[C@@H]1[C@H](O)[C@@H](C)/C=C/C=C/C=C/C=C/C=C/C=C/C=C/[C@H](O[C@@H]2O[C@H](C)[C@@H](O)[C@H](N)[C@@H]2O)C[C@@H]2O[C@](O)(C[C@@H](O)C[C@@H](O)[C@H](O)CC[C@@H](O)C[C@@H](O)CC(=O)O[C@H]1C)C[C@H](O)[C@H]2C(=O)O [AMPHOTERICIN B] | 25 (≈ 27.1 µM) | 50 (≈ 54.1 µM) |  |  | 25 (≈ 27.1 µM) |  |  | 50 (≈ 54.1 µM) |  | 25 (≈ 27.1 µM) |  |  |  |  |  |  | 
14 | O=C1CS/C(=N/N=C2C3CCCC2C(c2ccccc2Cl)NC3c2ccccc2Cl)N1 (stereo not given) | 100 (≈ 211 µM) | 50 (≈ 106 µM) | 100 (≈ 211 µM) |  | 6.25 (≈ 13.2 µM) | 50 (≈ 106 µM) | 100 (≈ 211 µM) | 25 (≈ 52.8 µM) | 25 (≈ 52.8 µM) | 50 (≈ 106 µM) |  |  |  |  |  | inactive | 
15 | O=C1CS/C(=N\N=C2C3CCCC2C(c2ccc(Cl)cc2)NC3c2ccc(Cl)cc2)N1 (stereo not given) | 12.5 (≈ 26.4 µM) | 100 (≈ 211 µM) | 25 (≈ 52.8 µM) | 50 (≈ 106 µM) | 6.25 (≈ 13.2 µM) | 6.25 (≈ 13.2 µM) | 6.25 (≈ 13.2 µM) | 25 (≈ 52.8 µM) | 100 (≈ 211 µM) | 25 (≈ 52.8 µM) |  |  |  |  |  |  | 
16 | COc1ccc(C2NC(c3ccc(OC)cc3)C3CCCC2C3=NNC(N)=S)cc1 (stereo not given) | 50 (≈ 118 µM) | 100 (≈ 236 µM) | 50 (≈ 118 µM) | 100 (≈ 236 µM) | 200 (≈ 471 µM) | 200 (≈ 471 µM) | 25 (≈ 58.9 µM) | 200 (≈ 471 µM) | 50 (≈ 118 µM) |  |  |  |  |  |  |  | inactive
17 | O=C1CS/C(=N\N=C2C3CCCC2C(c2cccc(F)c2)NC3c2cccc(F)c2)N1 (stereo not given) | 12.5 (≈ 28.4 µM) | 50 (≈ 114 µM) | 50 (≈ 114 µM) |  | 6.25 (≈ 14.2 µM) | 6.25 (≈ 14.2 µM) | 100 (≈ 227 µM) | 100 (≈ 227 µM) | 100 (≈ 227 µM) | 6.25 (≈ 14.2 µM) |  |  |  |  |  | inactive | 
18 | O=C1CS/C(=N\N=C2C3CCCC2C(c2ccc(F)cc2)NC3c2ccc(F)cc2)N1 (stereo not given) | 25 (≈ 56.8 µM) | 100 (≈ 227 µM) | 25 (≈ 56.8 µM) | 100 (≈ 227 µM) | 100 (≈ 227 µM) | 12.5 (≈ 28.4 µM) | 6.25 (≈ 14.2 µM) | 200 (≈ 454 µM) | 50 (≈ 114 µM) | 6.25 (≈ 14.2 µM) |  |  |  |  |  |  | 
